Measurements as given in US10251949B2, “Stabilized HIV-1 peptide constructs comprising the gp120 C5 domain and gp41 hydrophilic domain” (Bionor Immuno AS, priority 2009, dated 2019).
Bridge positions count the residues as written; N and C are the ends. Ends that are not written are not given here. I, II: the chains in the order shown.

Assays:
[1] = system: sera from rabbits immunized with BI400-B binding to C5/gp41 (015/201); experiment: Competitive ELISA for rabbit sera after immunization with BI400-B; conditions: for inhibition of antibody binding to C5/gp41 (015/201): antigen 10-1000 μM preincubated with rabbit serum 4° C. overnight, FIG. 3
Protocol: 50-100 μl of a mixture of BI400-015 and -201 (pre-incubated in Coating buffer—0.05M Na2CO3 pH9.6; denoted CB—in cold at 16 μg/ml for each peptide 1-3 days prior to coating) or just CB (background control) was used for coating wells in microtiter plates at 4° C. overnight. Plates were then washed 3× with washing buffer (PBS+1% v/v Triton-X100; denoted WB), followed by 2 h blocking at room temperature (RT) with 200 μl/well of blocking buffer (PBS+1% w/v BSA). Plates were then washed 3× with WB, followed by 1 h incubation at 37° C. with 60-100 μl/well of added rabbit serum samples (diluted 1:10-1:250 final concentration) preincubated together (4° C. overnight) with serial dilutions (ranging from 10-1000 μM final concentration) of 400-SEQ.B, BI400-015, BI400-201, BI400-204d, recombinant gp41 (Shin-Won Scientific, SWO 102 gp41), BI301-23 (irrelevant protein; control), no peptide (i.e. PBS; control), LTNP-sera pools (diluted 1:10 final concentration), or Blood donor sera-pools (diluted 1:10 final concentration; control). Plates were then washed 6× with WB, followed by 1 h incubation at RT with 70 μl/well of Alkaline Phosphatase-conjugated Goat-anti-Rabbit-Ig (6 μg/ml; Dako D0487). Plates were then washed 6× with WB, followed by 10-60 min incubation at RT with 100 μl/well of 0.3% w/v of Phenoftalein monophosphate (Sigma P-5758). Plates were finally quenched by adding 100 μl/well of Quench solution (0.1M TRIS+0.1M EDTA+0.5M NaOH+0.01% w/v NaN3; pH14), followed by ELISA reader (ASYS UVM 340) at 550 nm.

individual human sera = experiment: ELISA plate seroreactivity of individual human sera (LTNP, HIV chronically infected, blood donors); type: binding; conditions: FIG. 2, OD
Protocol: Seroreactivities of individual LTNP patient sera to SEQ ID NO: 47 (16 μg) alone and in combination with SEQ ID NO: 6 (16 μg) were determined using an ELISA plate as a solid support. Sheep anti-C5 antibodies were used as a positive control. Optical density (OD) at […] was used as a read out following the enzymatic reaction from protein G coupled to alkaline phosphatase.

C5/gp41 (015/201) = experiment: Rabbit immunization with BI400-B vaccine, serum ELISA; type: in vivo; conditions: rabbits immunized intradermally weeks 0, 2 & 6, 500 μg in Freund's adjuvant; in the presence of PBS; FIG. 3
Protocol: New Zealand White female rabbits (n=3) were immunized intradermally at weeks 0, 2 & 6 with 1 ml of BI400-B vaccine consisting of 500 μg BI400-B in 50% V/V Freund's adjuvant (i.e. Complete Freund's adjuvant used for priming, followed by boostings with Incomplete Freund's adjuvant). Individual blood serum was isolated for ELISA.
50-100 μl of a mixture of BI400-015 and -201 (pre-incubated in Coating buffer—0.05M Na2CO3 pH9.6; denoted CB—in cold at 16 μg/ml for each peptide 1-3 days prior to coating) or just CB (background control) was used for coating wells in microtiter plates at 4° C. overnight. Plates were then washed 3× with washing buffer (PBS+1% v/v Triton-X100; denoted WB), followed by 2 h blocking at room temperature (RT) with 200 μl/well of blocking buffer (PBS+1% w/v BSA). […] Plates were finally quenched by adding 100 μl/well of Quench solution (0.1M TRIS+0.1M EDTA+0.5M NaOH+0.01% w/v NaN3; pH14), followed by ELISA reader (ASYS UVM 340) at 550 nm.

Row | Substance | inhibition of antibody binding to C5/gp41 (015/201) [1] | magnitude of response among LTNP patients compared to patients chronically infected with HIV (individual human sera; individual sera) | responses in blood donors (individual human sera; negative control sera) | cross competition of anti-C5/gp41 rabbit sera by LTNP-sera pools ([1]; LTNP-sera pools diluted 1:10, FIG. 4) | binding of sera from immunized rabbits to C5/gp41 peptides (C5/gp41 (015/201))
1 | 201: gp41 peptide (DRPEGIEEEGGERDR) [compound 201] | could be inhibited | – | – | – | –
2 | APTKAKRRVVQREKR (Artificial sequene) [SEQ ID NO: 47] | – | greater response | consistently low | – | –
3 | BI400-B: SEQ ID NO: 38 and SEQ ID NO: 39 linked via Cys and Lys residues; vaccine antigen (chain 1 GAKRRVVGGCGGAKRRVVQREKRAGEREKRA; chain 2 GKGGIEEEGGRDRDRGGEQDRDR; bridge I:10-II:2 (inferred)) | could be inhibited | – | – | competitively inhibited | bound to peptides corresponding to C5/gp41 (015/201)
4 | GGAIVNGSLADDDIVI [204d, peptide derived from C2] | could be inhibited | – | – | – | –
